In data set [1] the test system is Mouse squamous cell carcinoma K-2. Briefly: Growth inhibition of cultured cells. Type of data set: cell-based. How it is done:
(§1) Briefly, a range of tumour cells including mouse melanoma, human melanoma, mouse squamous cell carcinoma, human breast, human colon, human leukemia and human lung and normal human cells including normal human fibroblasts were seeded at 2-5,000 per microtitre well (96-well plate) in 10% FCS-RPMI 1640 culture medium, treated, and allowed to grow until the controls were nearly confluent (5-6 days). The wells were then washed twice with PBS, fix with ethanol for a minimum of 5 minutes and washed with water. SRB solution (50 μL of 0.4% in 1% acetic acid) was added and left at room temperature for a minimum of 15 minutes. The plate was washed rapidly with tap water and then twice with 1% acetic acid. After addition of 100 μL/well of 10 mM Tris base (unbuffered, pH>9), plates were left for a minimum of 5 minutes, then the absorbance was read at 564 nm on the ELISA reader, with a 3 second prior shaking. After subtraction of a blank (wells with no cells, absorbance typically about 0.04), growth inhibition was calculated as % of the untreated control and plotted against dose.
(§2) Briefly, a suspension of a range of tumour cells including mouse melanoma, human melanoma, mouse squamous cell carcinoma, human breast, human colon, human leukemia and human lung and normal human cells including normal human fibroblasts were seeded into round-bottom microtitre plates in 10% FCS-RPMI 1640 culture medium, treated and allowed to grow for 5-6 days. To measure cell growth, 20 μL of a combined MTS/PMS solution (Promega Cell ProliferationAssay Kit Cat #G5430) was added to each well of the 96 well assay plate. After 1-4 hours the plates were placed in the ELISA plate reader and the absorbance read at 490 nm. After subtraction of a blank (wells with no cells, absorbance typically about 0.4), growth inhibition was calculated as % of the untreated control and plotted against dose.

A further data set relates to mouse melanoma B16. The experiment in a line: Growth inhibition of cultured cells. Type of data set: cell-based. The procedure: as §1, §2
The next data set concerns Human melanoma SKMel-5. Briefly: Growth inhibition of cultured cells. Format: cell-based. How it is done: as §1, §2
The next data set concerns B16 mouse melanoma. Briefly: Topical treatment of B16 melanoma tumours in C57BL/6 mice. Type of data set: in vivo. The procedure:
Tumour cells were injected subcutaneously (2 million cells/site in 50 μL culture medium for LK2 cells, 0.5 million for B16) into 4 sites each on the flanks of nude mice (for LK2 cells) or C57BL/6 mice (B16 mouse melanoma cells). When tumours became visible (2-4 mm diameter) five to 10 days after injection of cells, 37 μg of EBI-46 in 25 μL, of isopropanol gel was applied to each tumour site, each day for 3 days. Tumour size was measured with calipers at appropriate intervals.
(§3) Animal experiments were conducted under Queensland Institute of Medical Research (QIMR) Animal Ethics Committee approvals. The B16 mouse melanoma model was obtained by injecting 0.5 million B16 mouse melanoma cells subcutaneously into each of the 2 flanks of a male C57BL/6 mouse. The human tumour xenografts were obtained by injecting 2 million of the respective tumour cell line into each of 4 sites on the flanks of male nude mice (BALB/c background). EBI-46 was applied: (a) topically by dilution of a concentrated solution in acetone into an isopropanol gel, once a day for 3 days; (b) intralesionally by injection into the tumour of drug dissolved in 25% propylene glycol-0.1 M saline, (c) systemically by injection intraperitoneally in 25% propylene glycol in 0.1 M saline. Tumour size was measured with electronic callipers in mm and converted to volume (cubic mm) using the formula: Tumour volume=length×breadth×breadth/2. Results
Topical application of EBI-46 in an isopropanol gel was carried out on the aggressive B16 mouse melanoma in its natural (syngeneic) host, C57BL/6 mice (0.5 million tumour cells injected per site).
The frequency (1 daily dose for 3 days only) and dose level for topical application of PKC activators was selected on the basis of in vitro activity on cell lines. The materials were dissolved in acetone and diluted into an isopropanol gel for topical application.
The aggressive and rapidly growing B16 mouse melanoma is recognised as a very stringent tumour model in which to test anticancer agents. Stringency was further increased by injecting at least 10× more tumour cells than the minimum required to form a tumour in the animal. […] Such tumours could be distinguished from subcutaneous tumours by their immobility when the skin was pulled around the body of the animal.

Data set [2] concerns murine B-cell lymphoma line A20. Briefly: Systemic (intraperitoneal) treatment of A20 lymphoma in SCID-NOD mice. Format: in vivo. As to conditions: 5 doses of 20-25 μg from day 18, one mouse. How it is done:
as §3
The murine B-cell lymphoma line A20 was used as an experimental model because it has been reported to grow well in mice and closely models the human situation.
SCID-NOD mice (BALB/c background) were shaved and 10E7 A20 cells injected subcutaneously (2 sites per mouse). The tumours tended to grow in a flat, diffuse manner and became raised and measurable at the 10E7 sites only after about 15 days. […]

The subject of a further data set is human breast MCF-7. Briefly: Growth inhibition of cultured cells. Format: cell-based. The following applies: human breast CF-7. How it is done: as §1, §2
(§4) For growth inhibition assays, cells (2000-5000/well) were seeded in 96-well plates in duplicate, treated with drug next day and allowed to grow for a further 5-6 days. The plates were then washed in PBS (phosphate buffered saline, pH 7.2), fixed with ethanol and stained by addition of 50 μL 0.4% SRB (sulforhodamine) in 1% acetic acid. The plate was left at room temperature for a minimum of 15 minutes, then washed rapidly with tap water and then twice with 1% acetic acid. After addition of 100 μL/well of 10 mM Tris base (unbuffered, pH>9), plates were left for a minimum of 5 minutes, then the absorbance was read at 564 nm on the ELISA reader, with a 3 second prior shaking. After subtraction of a blank (wells with no cells, typically about 0.04), growth inhibition was calculated as % of the untreated control and plotted against dose.

Another data set has as its system human colon Colo205. The experiment in a line: Growth inhibition of cultured cells. Format: cell-based. How it is done: as §1, §2, §4
For the next data set, the system named is human leukemia K562. The experiment in a line: Growth inhibition of cultured cells. Format: cell-based. The procedure: as §1, §2, §4
For a further data set, the system named is human leukemia U937. Briefly: Growth inhibition of cultured cells. Type of data set: cell-based. How it is done:
as §1, §2, §4

In another data set the test system is human lung A549. Briefly: Growth inhibition of cultured cells. Type of data set: cell-based. How it is done:
as §1, §2, §4

The test system of a further data set is human melanoma MM127. Briefly: Growth inhibition of cultured cells. Type of data set: cell-based. The procedure:
as §1, §2, §4

In a further data set the test system is HOP62 lung. The experiment in a line: Growth inhibition of cultured cells. Type of data set: cell-based. The following applies: human lung H0P62. How it is done: as §1, §2, §4
In a further data set the test system is human melanoma MM96L. Briefly: Growth inhibition of cultured cells. Format: cell-based. The procedure:
as §1, §2, §4

Another data set deals with D04 melanoma. The experiment in a line: Growth inhibition of cultured cells. Format: cell-based. The following applies: human melanoma DO4. The procedure:
as §1, §2, §4

For the next data set, the system named is MCF-7. The experiment in a line: Cell scattering of cultured cells. Type of data set: cell-based, human.
Setting [3] is: topical, approximately 150 μg/site.

Structures are written as SMILES.

Regarding `C/C=C(\C)C(=O)OC1C(C)C2(O)C(C3OC3(CO)C(O)C3(O)C(=O)C(C)=CC32)C2C(C)(C)C12OC(=O)C(C)CC` (centres unmarked) [EBI-46, 12-tigloyl-13-(2-methylbutanoyl)-6,7-epoxy-4,5,9,12,13,20-hexahydroxy-1-tiglian-3-one], the “Concentration of EBI-46 at which growth inhibition was observed” value in data set [1] is under 100 ng/mL; in the data set with mouse melanoma B16, “=/<2 μg/mL”; in the data set with Human melanoma SKMel-5, under 100 ng/mL; with human breast MCF-7 it was under 100 ng/mL; in the data set with human colon Colo205, under 100 ng/mL; with human leukemia K562, under 100 ng/mL. Further, the “Concentration of EBI-46 at which growth inhibition was observed” value in the data set on human leukemia U937 is recorded as under 100 ng/mL; with human lung A549, under 100 ng/mL; with human melanoma MM127 it was under 100 ng/mL; with HOP62 lung, under 100 ng/mL; in the data set with human melanoma MM96L it was “=/<2 μg/mL”; in the data set on D04 melanoma it was under 100 ng/mL. For the same compound, the “systemic toxicity or lung metastases on post mortem” value in the data set on B16 mouse melanoma (topical 37 μg per site once a day for 3 days) is “There were no signs of”. Besides, the tumour growth entry in the data set on B16 mouse melanoma (topical 37 μg per site once a day for 3 days starting at day 5) is “inhibition of tumour growth”; in data set [2] it was “strongly inhibited”. Also, the inflammatory response entry with B16 mouse melanoma (setting [3]) was “mild”. The “systemic toxicity or lung metastases” value in the data set with B16 mouse melanoma (setting [3]) is on record as “no sign of systemic toxicity or lung metastases”. Besides, the tumour sites cured entry in the data set on B16 mouse melanoma (setting [3]) was “one site apparently cured”. In addition, the tumour response result in the data set on B16 mouse melanoma (topical, approximately 150 μg/site, 1 daily dose for 3 days) is on record as “good response”. For the same compound, the “scattering of MCF-7 cells” value in the data set on MCF-7 was “cell scattering”.

These data come from patent US10980769B2, “Tiglien-3-one derivatives” (QBIOTICS PTY LTD, priority 2005, dated 2021).
